Measurements reported in US20250368666A1, “INDAZOLE COMPOUNDS” (TYRA BIOSCIENCES, INC., priority 2022, published 2025).

Assays:
FGFR1 = molecular target: T1, FGFR1 (Homo sapiens, UniProt P11362); experiment: Kinase binding assay (kinase-tagged T7 phage, affinity beads, qPCR), Kd; conditions: read-out: FGFR1 (Kd nM)
T1 construct: made in house; host or cells: E. coli (BL21-derived), T7 phage
Method in brief: (§1)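 Readout was qPCR of kinase eluted from ligand-coated affinity beads after competition with test compound. Kinases were expressed as T7 phage fusions in E. coli. Binding constants were derived by non-linear least-squares Hill fitting, Hill slope −1.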

FGFR2 = molecular target: T2, FGFR2 (Homo sapiens, UniProt P21802); experiment: as above; conditions: read-out: FGFR2 (Kd nM)
T2 construct: made in house; host or cells: E. coli (BL21-derived), T7 phage
Method in brief: as §1

FGFR3 = molecular target: T3, FGFR3 (Homo sapiens, UniProt P22607); experiment: as above; conditions: read-out: FGFR3 (Kd nM)
T3 construct: made in house; host or cells: E. coli (BL21-derived), T7 phage
Method in brief: as §1

FGFR3 (V555M) = molecular target: T4, FGFR3 (V555M) (Homo sapiens, UniProt P22607, V555M); experiment: as above; conditions: V555M mutant; read-out: FGFR3 (V555M) (Kd nM)
T4 construct: made in house; host or cells: E. coli (BL21-derived), T7 phage
Method in brief: as §1

FGFR4 = molecular target: T5, FGFR4 (Homo sapiens, UniProt P22455); experiment: as above; conditions: read-out: FGFR4 (Kd nM)
T5 construct: made in house; host or cells: E. coli (BL21-derived), T7 phage
Method in brief: as §1

[1] = test system: KATO-III cell line (FGFR2 amplification); experiment: Cancer cell line cell viability assay (Cell Titer-Glo), 72 hr; assay type: cell-based; conditions: Homo sapiens, KATO III
Excerpt: (§2) Experimental Purpose: To detect the change of intracellular ATP by Cell Titer-Glo® and to evaluate the inhibitory effect of the compounds on cancer cell lines by determining the in vitro IC50 value of the compounds.
(§3) Cell Titer-Glo® 2.0 Luminescent cell viability assay reagent was purchased from Promega (Madison, WI). KG-1, KATO-III, and MDA-MB-453 cell lines were purchased from American Type Culture Collection (Manassas, VA). RT112/84 cell line was purchased from Millipore-Sigma (St. Louis, MO). HuH7 cells were purchased from Seikisui Xenotech (Kansas City, KS). RT112/84 and MDA-MB-453 cells were cultured in RPMI1640 media supplemented with 10% fetal bovine serum. KG-1 and KATO-III cell lines were cultured in IMDM media supplemented with 20% FBS. HuH7 cells were cultured in IMDM media supplemented with 10% FBS. Cultures were maintained at 37° C. in a humidified atmosphere of 5% CO2 and 95% air.
(§4) Cell Viability Assay Procedure: Cells were plated in 96-well clear bottom/white plates (Corning #3903) at a range of densities depending on the optimal assay window (5,000-20,000 cells/well in […] of media), incubated overnight. The next day, test compound DMSO stock solutions were made at 10 mM and […] final concentration. Compounds were then added to cells in a 9-dose, 4-fold dilution series starting at 3 μM with an HP 300e Digital Dispenser (each dose was applied in triplicate). DMSO was backfilled to each well up to 301 nL total volume of test compound+DMSO, and a total of 301 nL DMSO was added to a control/no test compound well in triplicate. The cells in cell culture plates were incubated with the compounds at 37° C. and 5% CO2 for 72 hours-120 hours depending on the cell line. Then 50 μl of Cell Titer Glo 2.0 reagent was added to each well of the cell culture plates. The contents were covered from light and mixed on an orbital shaker at room temperature for minimum of 10 min. Luminescence was recorded by a Clariostar Plus Microplate Reader (BMG Labtech, Cary, NC). Cells were assessed as a percentage of DMSO only treated control cells. Curves were plotted and IC50 values were calculated using the GraphPad Prism 9 program based on a sigmoidal dose-response equation (log (inhibitor) vs. response—Variable slope, 4-parameter).

[2] = test system: KG-1 cell line (FGFR 1-fusion); experiment: as above; assay type: cell-based; conditions: Homo sapiens, KG-1, KG-1 cell line (FGFR1-fusion)
Excerpt: as §2, §3, §4

[3] = test system: RT112/84 cell line (FGFR3-fusion); experiment: as above; assay type: cell-based; conditions: Homo sapiens, RT112/84, RT112/84 cell line (FGFR3-fusion)
Excerpt: as §2, §3, §4

T1 sequence (P11362 22-822): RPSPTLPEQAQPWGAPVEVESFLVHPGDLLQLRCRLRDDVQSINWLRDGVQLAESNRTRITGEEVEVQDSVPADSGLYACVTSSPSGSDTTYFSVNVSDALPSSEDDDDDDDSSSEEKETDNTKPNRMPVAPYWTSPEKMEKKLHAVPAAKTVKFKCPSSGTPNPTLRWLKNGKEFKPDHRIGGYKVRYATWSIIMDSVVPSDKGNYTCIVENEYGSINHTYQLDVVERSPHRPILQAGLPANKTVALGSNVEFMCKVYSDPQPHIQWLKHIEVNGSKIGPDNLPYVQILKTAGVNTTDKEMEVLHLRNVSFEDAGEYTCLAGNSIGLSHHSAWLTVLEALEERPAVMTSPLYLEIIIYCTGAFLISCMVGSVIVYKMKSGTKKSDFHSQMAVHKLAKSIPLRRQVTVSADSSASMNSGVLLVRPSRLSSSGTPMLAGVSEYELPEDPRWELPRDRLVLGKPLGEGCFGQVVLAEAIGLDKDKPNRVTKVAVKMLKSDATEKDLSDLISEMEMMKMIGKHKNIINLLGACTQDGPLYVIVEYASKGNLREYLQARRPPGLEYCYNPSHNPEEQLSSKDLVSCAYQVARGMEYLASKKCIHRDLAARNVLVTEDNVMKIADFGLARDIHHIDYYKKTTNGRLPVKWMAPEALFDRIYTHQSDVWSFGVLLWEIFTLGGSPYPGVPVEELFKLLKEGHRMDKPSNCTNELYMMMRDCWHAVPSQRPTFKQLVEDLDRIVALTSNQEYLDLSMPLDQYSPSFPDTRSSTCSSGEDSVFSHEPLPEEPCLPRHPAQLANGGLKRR
T4 sequence (P22607 23-806 V555M): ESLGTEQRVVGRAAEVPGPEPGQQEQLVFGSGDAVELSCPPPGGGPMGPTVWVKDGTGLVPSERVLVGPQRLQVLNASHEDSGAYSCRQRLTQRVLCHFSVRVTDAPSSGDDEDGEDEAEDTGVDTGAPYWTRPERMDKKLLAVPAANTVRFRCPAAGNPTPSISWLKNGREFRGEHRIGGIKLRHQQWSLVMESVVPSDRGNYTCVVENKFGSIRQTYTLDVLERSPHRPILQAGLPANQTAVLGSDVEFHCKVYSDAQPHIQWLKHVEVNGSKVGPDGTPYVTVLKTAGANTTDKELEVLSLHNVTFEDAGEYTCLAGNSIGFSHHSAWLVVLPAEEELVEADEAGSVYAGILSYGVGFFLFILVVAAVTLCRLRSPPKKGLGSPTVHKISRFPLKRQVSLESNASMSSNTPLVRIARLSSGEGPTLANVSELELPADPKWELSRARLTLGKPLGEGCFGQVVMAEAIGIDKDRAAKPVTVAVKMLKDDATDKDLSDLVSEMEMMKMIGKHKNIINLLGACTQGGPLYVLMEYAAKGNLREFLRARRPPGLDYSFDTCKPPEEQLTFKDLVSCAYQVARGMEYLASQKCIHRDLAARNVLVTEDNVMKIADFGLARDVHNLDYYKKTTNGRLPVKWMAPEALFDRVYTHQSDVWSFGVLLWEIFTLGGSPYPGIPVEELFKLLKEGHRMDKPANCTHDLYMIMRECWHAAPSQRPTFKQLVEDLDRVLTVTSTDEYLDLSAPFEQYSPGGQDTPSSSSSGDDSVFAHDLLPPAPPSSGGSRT
T3 sequence (P22607 23-806): as the sequence (P22607 23-806 V555M) above, with M533V counted along it
T2 sequence (P21802 22-821): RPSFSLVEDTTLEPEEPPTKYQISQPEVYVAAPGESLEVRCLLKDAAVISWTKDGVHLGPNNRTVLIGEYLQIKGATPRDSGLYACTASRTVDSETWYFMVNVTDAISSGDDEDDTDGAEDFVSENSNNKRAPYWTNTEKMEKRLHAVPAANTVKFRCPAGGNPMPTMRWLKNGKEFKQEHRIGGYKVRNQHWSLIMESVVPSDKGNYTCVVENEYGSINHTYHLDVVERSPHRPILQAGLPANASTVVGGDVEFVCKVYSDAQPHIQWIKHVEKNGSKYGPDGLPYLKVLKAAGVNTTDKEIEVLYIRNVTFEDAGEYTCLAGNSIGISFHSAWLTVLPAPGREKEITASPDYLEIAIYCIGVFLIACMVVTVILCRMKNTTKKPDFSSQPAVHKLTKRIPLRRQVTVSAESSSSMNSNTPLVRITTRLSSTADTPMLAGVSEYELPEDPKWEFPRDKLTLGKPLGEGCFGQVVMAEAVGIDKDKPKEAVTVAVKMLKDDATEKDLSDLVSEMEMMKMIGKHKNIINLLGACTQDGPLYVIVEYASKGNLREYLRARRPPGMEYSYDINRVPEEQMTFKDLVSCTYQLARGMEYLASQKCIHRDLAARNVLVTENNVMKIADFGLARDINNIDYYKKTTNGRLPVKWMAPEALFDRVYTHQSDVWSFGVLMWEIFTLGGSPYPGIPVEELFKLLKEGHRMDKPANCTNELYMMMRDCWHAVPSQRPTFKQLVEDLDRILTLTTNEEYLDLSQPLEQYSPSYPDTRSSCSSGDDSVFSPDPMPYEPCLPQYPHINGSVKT
T5 sequence (P22455 22-802): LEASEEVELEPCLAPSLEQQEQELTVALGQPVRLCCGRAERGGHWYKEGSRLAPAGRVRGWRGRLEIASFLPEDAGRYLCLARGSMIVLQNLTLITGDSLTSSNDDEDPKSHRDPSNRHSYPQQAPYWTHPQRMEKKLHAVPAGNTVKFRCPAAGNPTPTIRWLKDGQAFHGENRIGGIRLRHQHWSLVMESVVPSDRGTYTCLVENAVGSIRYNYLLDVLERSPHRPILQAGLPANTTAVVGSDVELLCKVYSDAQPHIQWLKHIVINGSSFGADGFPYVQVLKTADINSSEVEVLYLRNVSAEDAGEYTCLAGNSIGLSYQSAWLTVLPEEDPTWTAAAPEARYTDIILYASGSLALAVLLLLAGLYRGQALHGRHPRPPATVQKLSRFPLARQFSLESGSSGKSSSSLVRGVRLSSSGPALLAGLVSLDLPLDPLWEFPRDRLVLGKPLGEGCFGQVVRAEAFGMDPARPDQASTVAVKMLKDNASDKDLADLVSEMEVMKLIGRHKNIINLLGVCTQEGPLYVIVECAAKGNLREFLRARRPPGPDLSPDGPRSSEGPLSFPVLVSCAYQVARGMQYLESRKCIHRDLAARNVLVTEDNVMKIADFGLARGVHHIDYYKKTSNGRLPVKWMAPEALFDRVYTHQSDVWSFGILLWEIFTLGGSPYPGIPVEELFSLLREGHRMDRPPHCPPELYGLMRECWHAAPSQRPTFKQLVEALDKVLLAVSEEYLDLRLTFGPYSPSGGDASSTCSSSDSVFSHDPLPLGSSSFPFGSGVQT

Structure (SMILES)	Kd (FGFR1)	Kd (FGFR2)	Kd (FGFR3)	Kd (FGFR3 (V555M))	Kd (FGFR4)	IC50 [1]	IC50 [2]	IC50 [3]
CC(C)NC1(C)CN(c2ncc(-c3n[nH]c4ccc(O[C@H](C)c5c(Cl)cncc5Cl)cc34)cn2)C1 [Example 236, (R)-1-(5-(5-(1-(3,5-dichloropyridin-4-yl)ethoxy)-1H-indazol-3-yl)pyrimidin-2-yl)-N-isopropyl-3-methylazetidin-3-amine]	1 to 50 nM	1 to 50 nM	1 to 50 nM	1 to 50 nM	1 to 50 nM	–	–	–
CCNC1(C)CN(c2ccc(-c3n[nH]c4ccc(O[C@H](C)c5c(Cl)cncc5Cl)cc34)cn2)C1 [Example 239, 1-[5-[5-[(1R)-1-(3,5-dichloro-4-pyridyl)ethoxy]-1H-indazol-3-yl]-2-pyridyl]-N-ethyl-3-methyl-azetidin-3-amine]	1 to 50 nM	1 to 50 nM	1 to 50 nM	1 to 50 nM	1 to 50 nM	–	–	–
C[C@@H](Oc1ccc2[nH]nc(-c3cnc(N4CC(N)(CC#N)C4)c(F)c3)c2c1)c1c(Cl)cncc1Cl [Example 241, (R)-2-(3-amino-1-(5-(5-(1-(3,5-dichloropyridin-4-yl)ethoxy)-1H-indazol-3-yl)-3-fluoropyridin-2-yl)azetidin-3-yl)acetonitrile]	1 to 50 nM	–	1 to 50 nM	–	–	0.1 to 50 nM	50 to 200 nM	0.1 to 50 nM
C=CCNC1(CC#N)CN(c2ncc(-c3n[nH]c4ccc(O[C@H](C)c5c(Cl)cncc5Cl)cc34)cc2F)C1 [Example 248, 2-[3-(allylamino)-1-[5-[5-[(1R)-1-(3,5-dichloro-4-pyridyl)ethoxy]-1H-indazol-3-yl]-3-fluoro-2-pyridyl]azetidin-3-yl]acetonitrile]	1 to 50 nM	–	1 to 50 nM	–	–	50 to 200 nM	200 to 1000 nM	0.1 to 50 nM
C[C@@H](Oc1ccc2[nH]nc(-c3ccc(N4CC(C)(NCC5CC5)C4)nn3)c2c1)c1c(Cl)cncc1Cl [Example 249, (R)-N-(cyclopropyl-methyl)-1-(6-(5-(1-(3,5-dichloropyridin-4-yl)ethoxy)-1H-indazol-3-yl)pyridazin-3-yl)-3-methylazetidin-3-amine]	1 to 50 nM	–	1 to 50 nM	–	–	0.1 to 50 nM	50 to 200 nM	0.1 to 50 nM
C[C@@H](Oc1ccc2[nH]nc(-c3ccc(N4CC(N)(CCS(C)(=O)=O)C4)nn3)c2c1)c1c(Cl)cncc1Cl [Example 294, (R)-1-(6-(5-(1-(3,5-dichloropyridin-4-yl)ethoxy)-1H-indazol-3-yl)pyridazin-3-yl)-3-(2-(methylsulfonyl)ethyl)azetidin-3-amine]	1 to 50 nM	–	1 to 50 nM	–	–	50 to 200 nM	> 1000 nM	0.1 to 50 nM
CCCC1(N)CN(c2ccc(-c3n[nH]c4ccc(O[C@H](C)c5c(Cl)cncc5Cl)cc34)nn2)C1 [Example 295, (R)-1-(6-(5-(1-(3,5-dichloropyridin-4-yl)ethoxy)-1H-indazol-3-yl)pyridazin-3-yl)-3-propylazetidin-3-amine]	1 to 50 nM	–	1 to 50 nM	–	–	50 to 200 nM	–	0.1 to 50 nM
C[C@@H](Oc1ccc2[nH]nc(-c3ccc(N4CC(C)(NCCF)C4)nn3)c2c1)c1c(Cl)cncc1Cl [Example 309, (R)-1-(6-(5-(1-(3,5-dichloropyridin-4-yl)ethoxy)-1H-indazol-3-yl)pyridazin-3-yl)-N-(2-fluoroethyl)-3-methylazetidin-3-amine]	1 to 50 nM	–	1 to 50 nM	–	–	–	50 to 200 nM	0.1 to 50 nM
C[C@@H](Oc1ccc2[nH]nc(-c3cnc(N4CC(C)(NCCC#N)C4)c(F)c3)c2c1)c1c(Cl)cncc1Cl [Example 310, (R)-3-((1-(5-(5-(1-(3,5-dichloropyridin-4-yl)ethoxy)-1H-indazol-3-yl)-3-fluoropyridin-2-yl)-3-methylazetidin-3-yl)amino)propane-nitrile]	1 to 50 nM	–	1 to 50 nM	–	–	–	50 to 200 nM	0.1 to 50 nM
C[C@@H](Oc1cc2c(-c3cnc(N4CC(C)(CN5CCCC5)C4)c(C#N)c3)n[nH]c2cc1F)c1c(Cl)cncc1Cl [Example 317, (R)-5-(5-(1-(3,5-dichloropyridin-4-yl)ethoxy)-6-fluoro-1H-indazol-3-yl)-2-(3-methyl-3-(pyrrolidin-1-ylmethyl)azetidin-1-yl)nicotinonitrile]	50 to 300 nM	50 to 300 nM	1 to 50 nM	1 to 50 nM	1 to 50 nM	–	–	–
C[C@@H](Oc1ccc2[nH]nc(-c3cnc(N4CC(C)(CP(C)(C)=O)C4)c(C#N)c3)c2c1F)c1c(Cl)cncc1Cl [Example 323, (R)-5-(5-(1-(3,5-dichloropyridin-4-yl)ethoxy)-4-fluoro-1H-indazol-3-yl)-2-(3-((dimethyl-phosphoryl)methyl)-3-methylazetidin-1-yl)nicotinonitrile]	> 1000 nM	> 1000 nM	> 1000 nM	300 to 1000 nM	1 to 50 nM	–	–	–

Now from value to compound:

Kd (FGFR1)	Kd (FGFR2)	Kd (FGFR3)	Kd (FGFR3 (V555M))	Kd (FGFR4)	IC50 [1]	IC50 [2]	IC50 [3]	Structure (SMILES)
> 1000 nM	> 1000 nM	> 1000 nM	> 1000 nM	50 to 300 nM	–	–	–	C[C@@H](Oc1ccc2[nH]nc(-c3cnc(N4CC(C)(NCC5CC5)C4)c(C#N)c3)c2c1F)c1c(Cl)cncc1Cl [Example 318, (R)-2-(3-((cyclopropylmethyl)amino)-3-methylazetidin-1-yl)-5-(5-(1-(3,5-dichloropyridin-4-yl)ethoxy)-4-fluoro-1H-indazol-3-yl)nicotinonitrile]
> 1000 nM	> 1000 nM	> 1000 nM	300 to 1000 nM	50 to 300 nM	–	–	–	CC(C)NC1(C)CN(c2ncc(-c3n[nH]c4ccc(O[C@H](C)c5c(Cl)cncc5Cl)c(F)c34)cc2C#N)C1 [Example 319, (R)-5-(5-(1-(3,5-dichloropyridin-4-yl)ethoxy)-4-fluoro-1H-indazol-3-yl)-2-(3-(isopropylamino)-3-methylazetidin-1-yl)nicotinonitrile]
> 1000 nM	> 1000 nM	> 1000 nM	300 to 1000 nM	50 to 300 nM	–	–	–	C[C@@H](Oc1ccc2[nH]nc(-c3cnc(N4CC(C)(N5CCCC5)C4)c(C#N)c3)c2c1F)c1c(Cl)cncc1Cl [Example 322, (R)-5-(5-(1-(3,5-dichloropyridin-4-yl)ethoxy)-4-fluoro-1H-indazol-3-yl)-2-(3-methyl-3-(pyrrolidin-1-yl)azetidin-1-yl)nicotinonitrile]
> 1000 nM	> 1000 nM	> 1000 nM	300 to 1000 nM	1 to 50 nM	–	–	–	C[C@@H](Oc1ccc2[nH]nc(-c3cnc(N4CC(C)(NCCO)C4)c(C#N)c3)c2c1F)c1c(Cl)cncc1Cl [Example 324, (R)-5-(5-(1-(3,5-dichloropyridin-4-yl)ethoxy)-4-fluoro-1H-indazol-3-yl)-2-(3-((2-hydroxy-ethyl)amino)-3-methylazetidin-1-yl)nicotinonitrile]
> 1000 nM	> 1000 nM	> 1000 nM	> 1000 nM	1 to 50 nM	–	–	–	CC(C)NCC1(C)CN(c2ncc(-c3n[nH]c4ccc(O[C@H](C)c5c(Cl)cncc5Cl)c(F)c34)cc2C#N)C1 [Example 326, (R)-5-(5-(1-(3,5-dichloropyridin-4-yl)ethoxy)-4-fluoro-1H-indazol-3-yl)-2-(3-((isopropylamino)methyl)-3-methylazetidin-1-yl)nicotinonitrile]
> 1000 nM	> 1000 nM	> 1000 nM	> 1000 nM	50 to 300 nM	–	–	–	C[C@@H](Oc1ccc2[nH]nc(-c3cnc(N4CC(C)(N5CCOCC5)C4)c(C#N)c3)c2c1F)c1c(Cl)cncc1Cl [Example 327, (R)-5-(5-(1-(3,5-dichloropyridin-4-yl)ethoxy)-4-fluoro-1H-indazol-3-yl)-2-(3-methyl-3-morpholinoazetidin-1-yl)nicotinonitrile]
